Assay results: patent publication US20240158446A1, “CYCLIC COMPOUND HAVING SELECTIVE INHIBITORY ACTION ON KRAS OVER HRAS AND NRAS” (CHUGAI SEIYAKU KABUSHIKI KAISHA, priority 2021, published 2024)
Where two headings read alike, the source gives them in different places. Where a SMILES comes first, the peptide text is derived from it. Bridges are numbered along the chain shown (N, C = ends). [ ]: non-standard residue; d: D form. The star is where a group is joined. hPhe(3,5-F2-4-CF3) = N[C@@H](CCc1cc(F)c(C(F)(F)F)c(F)c1)C(=O)O; hPhe(3-Cl-4-CF3) = N[C@@H](CCc1ccc(C(F)(F)F)c(Cl)c1)C(=O)O; NPrPhe(4-CF3) = CCCN[C@@H](Cc1ccc(C(F)(F)F)cc1)C(=O)O; NMeGly(cPent) = CN[C@H](C(=O)O)C1CCCC1; Pro(4,4-F2) = O=C(O)[C@@H]1CC(F)(F)CN1; Hyp = O=C(O)[C@@H]1C[C@@H](O)CN1; NMeD = CN[C@@H](CC(=O)O)C(=O)O; NMeL = CN[C@@H](CC(C)C)C(=O)O; αMeS = C[C@](N)(CO)C(=O)O; Morpholide = C1CN(*)CCO1; NMeA = CN[C@@H](C)C(=O)O; Ac5c = NC1(C(=O)O)CCCC1; Aze = O=C(O)[C@@H]1CCN1; Ac4c = NC1(C(=O)O)CCC1; Sar = CNCC(=O)O; Allyl = C=CC*

How the values were obtained:
[1] = target: GDP-bound HRAS wild-type protein (Homo sapiens, UniProt P01112); experiment: Binding to HRAS by surface plasmon resonance (SPR), Single Cycle Kinetics; conditions: for HRAS/KRAS (ratio of KD value with respect to HRAS to KD value with respect to KRAS) / HRAS/KRAS (ratio of KD value for HRAS to KD value for KRAS): SPR, GDP-bound HRAS wild-type protein vs GDP-bound KRAS wild-type protein; for HRAS/KRAS (ratio of KD value with respect to GDP-bound HRAS wild-type protein to KD value with respect to KRAS): SPR KD ratio HRAS/KRAS, class symbols
GDP-bound HRAS wild-type protein, sequence (P01112 whole entry): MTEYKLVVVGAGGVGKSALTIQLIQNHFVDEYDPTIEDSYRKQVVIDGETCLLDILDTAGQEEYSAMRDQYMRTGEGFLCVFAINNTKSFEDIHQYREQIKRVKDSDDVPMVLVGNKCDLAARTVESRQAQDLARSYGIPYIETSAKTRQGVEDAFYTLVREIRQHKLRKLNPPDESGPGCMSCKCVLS

[2] = target: GDP-bound KRAS wild-type protein (Homo sapiens, UniProt P01116); experiment: Binding to KRAS by surface plasmon resonance (SPR), Single Cycle Kinetics; conditions: GDP-bound KRAS wild-type protein, read-out: KRAS KD
GDP-bound KRAS wild-type protein, sequence (P01116 whole entry): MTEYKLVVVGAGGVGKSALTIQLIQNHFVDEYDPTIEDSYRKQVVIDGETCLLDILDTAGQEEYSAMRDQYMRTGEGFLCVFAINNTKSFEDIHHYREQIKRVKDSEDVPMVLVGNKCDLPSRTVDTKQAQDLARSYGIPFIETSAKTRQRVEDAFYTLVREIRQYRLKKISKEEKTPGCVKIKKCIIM

[3] = target: GDP-bound NRAS wild-type protein (Homo sapiens, UniProt P01111); experiment: Binding to NRAS by surface plasmon resonance (SPR), Single Cycle Kinetics; conditions: for NRAS/KRAS (ratio of KD value with respect to NRAS to KD value with respect to KRAS) / NRAS/KRAS (ratio of KD value for NRAS to KD value for KRAS): SPR, GDP-bound NRAS wild-type protein vs GDP-bound KRAS wild-type protein; for NRAS/KRAS (ratio of KD value with respect to GDP-bound NRAS wild-type protein to KD value with respect to KRAS): SPR KD ratio NRAS/KRAS, class symbols
GDP-bound NRAS wild-type protein, sequence (P01111 whole entry): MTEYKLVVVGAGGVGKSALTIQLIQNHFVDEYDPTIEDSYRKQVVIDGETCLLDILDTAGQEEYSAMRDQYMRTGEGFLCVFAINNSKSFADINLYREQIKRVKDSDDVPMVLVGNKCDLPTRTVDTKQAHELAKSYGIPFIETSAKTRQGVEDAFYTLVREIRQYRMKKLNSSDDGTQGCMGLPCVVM

[4] = SPR Single Cycle Kinetics, 1:1 binding model

| Kd [2, 4] [nM] | SMILES | HRAS/KRAS (ratio of KD value with respect to HRAS to KD value with respect to KRAS) [1] | NRAS/KRAS (ratio of KD value with respect to NRAS to KD value with respect to KRAS) [3] | HRAS/KRAS (ratio of KD value with respect to GDP-bound HRAS wild-type protein to KD value with respect to KRAS) [1] | NRAS/KRAS (ratio of KD value with respect to GDP-bound NRAS wild-type protein to KD value with respect to KRAS) [3] | other results |
| --- | --- | --- | --- | --- | --- | --- |
| 0.51 | C=CCOC[C@]1(C)NC(=O)[C@@H]2CCCN2C(=O)[C@H](CCc2cc(F)c(C(F)(F)F)c(F)c2)NC(=O)CN(C)C(=O)[C@H](Cc2ccc(C(F)(F)F)cc2)N(CCC)C(=O)CN(C)C(=O)CN(C)C(=O)[C@H]([C@@H](C)CC)NC(=O)[C@H](CC(C)C)N(C)C(=O)C[C@@H](C(=O)N(C)C)N(C)C(=O)[C@H](C2CCCC2)N(C)C1=O [PP0742] ([NMeL]I[Sar][Sar][NPrPhe(4-CF3)][Sar][hPhe(3,5-F2-4-CF3)]P[αMeS](Allyl)[NMeGly(cPent)][NMeD]-NMe2; lactam N-11) | B (a compound having 3 or more and less than 10 is denoted as B) | B (a compound having 3 or more and less than 10 is denoted as B) | – | – | – |
| – | CCO[C@@H]1C[C@H]2C(=O)NC3(CCC3)C(=O)N(C)[C@@H](C3CCCC3)C(=O)N(C)[C@H](C(=O)N(C)C)CC(=O)N(C)[C@@H](CC)C(=O)N[C@@H]([C@@H](C)CC)C(=O)N(C)CC(=O)N(C)[C@H]3C[C@@H](C)CCN(C3=O)[C@@H](Cc3ccc(C(F)(F)F)cc3)C(=O)N(C)CC(=O)N[C@@H](CCc3cc(F)c(C(F)(F)F)c(F)c3)C(=O)N2C1 [PP1020] | – | – | – | – | HRAS/KRAS (ratio of KD value for HRAS to KD value for KRAS) [1]: B (a compound having 3 or more and less than 10 is denoted as B); Kd ([2]; SPR, Single Cycle Kinetics): 0.022 nM; NRAS/KRAS (ratio of KD value for NRAS to KD value for KRAS) [3]: C (A compound having a KD ratio of 0.1 or more and less than 3 is denoted as C) |
| 0.27 | CCO[C@@H]1C[C@H]2C(=O)NC3(CCC3)C(=O)N(C)[C@@H](C3CCCC3)C(=O)N(C)[C@H](C(=O)N(C)C)CC(=O)N(C)[C@@H](CC3CC3)C(=O)N[C@@H]([C@@H](C)CC)C(=O)N(C)CC(=O)N(C)[C@H]3CCCCCN(C3=O)[C@@H](Cc3ccc(C(F)(F)F)cc3)C(=O)N(C)CC(=O)N[C@@H](CCc3cc(F)c(C(F)(F)F)c(F)c3)C(=O)N2C1 [PP0667] | B (a compound having 3 or more and less than 10 is denoted as B) | B (a compound having 3 or more and less than 10 is denoted as B) | – | – | – |
| 2.4 | CCC[C@H]1C(=O)N[C@@H]([C@@H](C)CC)C(=O)N(C)CC(=O)N(C)[C@H]2C/C=C\CCN(C2=O)[C@@H](Cc2ccc(C(F)(F)F)cc2)C(=O)N(C)CC(=O)N[C@@H](CCc2ccc(CC)c(Cl)c2)C(=O)N2C[C@H](OCC)C[C@H]2C(=O)NC2(CC(C)(C)C2)C(=O)N(C)[C@@H](C(CC)CC)C(=O)N(C)[C@H](C(=O)N(C)C)CC(=O)N1C [PP2777] | – | – | A (a compound having 10 or more and less than 20 is denoted as A) | AA (a compound having 20 or more is denoted as AA) | – |
| 0.2 | CC[C@H](C)[C@@H]1NC(=O)[C@@H]2CCC/C=C/c3ccc(cc3)C[C@@H](C(=O)N(C)CC(=O)N[C@@H](CCc3ccc(Cl)c(Cl)c3)C(=O)N3CCC[C@H]3C(=O)NC3(CC(C)(C)C3)C(=O)N(C)[C@@H](C3CCCC3)C(=O)N(C)[C@H](C(=O)N(C)CC)CC(=O)N2C)N2CC/C=C\C[C@@H](C2=O)N(C)C(=O)CN(C)C1=O [PP2601] | – | – | A (a compound having 10 or more and less than 20 is denoted as A) | A (a compound having 10 or more and less than 20 is denoted as A) | – |
| – | CCO[C@@H]1C[C@H]2C(=O)NC3(CC(C)(C)C3)C(=O)N(C)[C@@H](C3CCCC3)C(=O)N(C)[C@H](C(=O)N(C)C)CC(=O)N(C)[C@@H](CC3CC3)C(=O)N[C@@H]([C@@H](C)CC)C(=O)N(C)CC(=O)N(C)[C@H]3C/C=C\CCN(C3=O)[C@@H](Cc3ccc(C(F)(F)F)cc3)C(=O)N(C)CC(=O)N[C@@H](CCc3cc(F)c(C(F)(F)F)c(F)c3)C(=O)N2C1 [PP1568] | – | – | – | – | HRAS/KRAS (ratio of KD value for HRAS to KD value for KRAS) ([1]; KD ratio class): A (a compound having 10 or more and less than 20 is denoted as A); Kd ([2]; SPR, Single Cycle Kinetics, 1:1 binding model): 0.031 nM; NRAS/KRAS (ratio of KD value for NRAS to KD value for KRAS) ([3]; KD ratio class): A (a compound having 10 or more and less than 20 is denoted as A) |
| 0.036 | CCCN1C(=O)[C@@H]2CCN2C(=O)[C@H](C)N(C)C(=O)[C@H]([C@@H](C)CC)NC(=O)[C@H](CC(C)C)N(C)C(=O)C[C@@H](C(=O)N(C)C)N(C)C(=O)[C@H](C2CCCC2)N(C)C(=O)C2(CCC2)NC(=O)[C@@H]2CC(F)(F)CN2C(=O)[C@H](CCc2ccc(C(F)(F)F)c(Cl)c2)NC(=O)CN(C)C(=O)[C@@H]1Cc1ccc(C(F)(F)F)cc1 [PP0437] ([NMeL]I[NMeA][Aze][NPrPhe(4-CF3)][Sar][hPhe(3-Cl-4-CF3)][Pro(4,4-F2)][Ac4c][NMeGly(cPent)][NMeD]-NMe2; lactam N-11) | B (a compound having 3 or more and less than 10 is denoted as B) | C (A compound having a KD ratio of 0.1 or more and less than 3 is denoted as C) | – | – | – |
| 1.1 | CC[C@H](C)[C@@H]1NC(=O)[C@H](CC(C)C)N(C)C(=O)C[C@@H](C(=O)N2CCOCC2)N(C)C(=O)[C@H](C2CCCC2)N(C)C(=O)C2(CC(F)(F)C2)NC(=O)[C@@H]2CCCN2C(=O)[C@H](CCc2cc(F)c(C(F)(F)F)c(F)c2)NC(=O)CN(C)C(=O)[C@H](Cc2ccc(C(F)(F)F)cc2)N2CCCCC[C@@H](C2=O)N(C)C(=O)CN(C)C1=O [PP0499] | B (a compound having 3 or more and less than 10 is denoted as B) | B (a compound having 3 or more and less than 10 is denoted as B) | – | – | – |
| – | CCC[C@H]1C(=O)N[C@@H]([C@@H](C)CC)C(=O)N(C2CC2)CC(=O)N(C)[C@H]2C/C=C\CCN(C2=O)[C@@H](CC2CCC(F)(F)CC2)C(=O)N(C)CC(=O)N[C@@H](CCc2ccc(C(F)(F)F)c(OC)c2)C(=O)N2C[C@H](OCC)C[C@H]2C(=O)N(C)C2(CCC2)C(=O)N(C)[C@@H](C(CC)CC)C(=O)N(C)[C@H](C(=O)N(C)C)CC(=O)N1C [PP2349] | – | – | – | – | HRAS/KRAS (ratio of KD value for HRAS to KD value for KRAS) [1]: A (a compound having 10 or more and less than 20 is denoted as A); Kd ([2]; SPR, Single Cycle Kinetics): 3.8 nM; NRAS/KRAS (ratio of KD value for NRAS to KD value for KRAS) [3]: A (a compound having 10 or more and less than 20 is denoted as A) |
| 0.13 | CCC[C@H]1C(=O)N[C@@H]([C@@H](C)CC)C(=O)N(C)CC(=O)N(C)[C@H]2C/C=C\CCN(C2=O)[C@@H](Cc2ccc(C(F)(F)F)cc2)C(=O)N(C)CC(=O)N[C@@H](CCc2ccc(Cl)c(C(F)(F)F)c2)C(=O)N2C[C@H](OCC)C[C@H]2C(=O)NC2(CC(C)(C)C2)C(=O)N(C)[C@@H](C2CCCC2)C(=O)N(C)[C@H](C(=O)N(C)C)CC(=O)N1C [PP2784] | – | – | A (a compound having 10 or more and less than 20 is denoted as A) | A (a compound having 10 or more and less than 20 is denoted as A) | – |
| 0.056 | CCCN1C(=O)[C@@H]2CCN2C(=O)CN(C)C(=O)[C@H]([C@@H](C)CC)NC(=O)[C@H](CC(C)C)N(C)C(=O)C[C@@H](C(=O)N2CCOCC2)N(C)C(=O)[C@H](C2CCCC2)N(C)C(=O)C2(CCC2)NC(=O)[C@@H]2CC(F)(F)CN2C(=O)[C@H](CCc2ccc(C(F)(F)F)c(Cl)c2)NC(=O)CN(C)C(=O)[C@@H]1Cc1ccc(C(F)(F)F)cc1 [PP0409] ([NMeL]I[Sar][Aze][NPrPhe(4-CF3)][Sar][hPhe(3-Cl-4-CF3)][Pro(4,4-F2)][Ac4c][NMeGly(cPent)][NMeD]-Morpholide; lactam N-11) | C (A compound having a KD ratio of 0.1 or more and less than 3 is denoted as C) | C (A compound having a KD ratio of 0.1 or more and less than 3 is denoted as C) | – | – | – |
| 0.031 | CCCN1C(=O)[C@@H]2CCN2C(=O)CN(C)C(=O)[C@H]([C@@H](C)CC)NC(=O)[C@H](CC(C)C)N(C)C(=O)C[C@@H](C(=O)N(C)C)N(C)C(=O)[C@H](C2CCCC2)N(C)C(=O)C2(CCCC2)NC(=O)[C@@H]2C[C@@H](OCC)CN2C(=O)[C@H](CCc2ccc(C(F)(F)F)c(Cl)c2)NC(=O)CN(C)C(=O)[C@@H]1Cc1ccc(C(F)(F)F)cc1 [PP0444] ([NMeL]I[Sar][Aze][NPrPhe(4-CF3)][Sar][hPhe(3-Cl-4-CF3)][Hyp](Et)[Ac5c][NMeGly(cPent)][NMeD]-NMe2; lactam N-11) | C (A compound having a KD ratio of 0.1 or more and less than 3 is denoted as C) | C (A compound having a KD ratio of 0.1 or more and less than 3 is denoted as C) | – | – | – |
| 0.1 | CCCC[C@H]1C(=O)N[C@@H]([C@@H](C)CC)C(=O)N(C)CC(=O)N(C)[C@H]2C/C=C\CCN(C2=O)[C@@H](Cc2ccc(C(F)(F)F)cc2)C(=O)N(C)CC(=O)N[C@@H](CCc2ccc(C(F)(F)F)c(OC)c2)C(=O)N2C[C@H](OCC)C[C@H]2C(=O)NC2(CCC2)C(=O)N(C)[C@@H](C2CCCC2)C(=O)N(C)[C@H](C(=O)N(C)CC)CC(=O)N1C [PP2840] | – | – | A (a compound having 10 or more and less than 20 is denoted as A) | A (a compound having 10 or more and less than 20 is denoted as A) | – |
